Reference: PubChem BioAssay AID1053172 (The Scripps Research Institute Molecular Screening Center, 2014)
Active and inactive are the calls of the source. The rule behind the calls is not given here.

Biological target: HIV-1 integrase / human LEDGF/p75 complex
Test: blockers of LEDGF/p75-dependent integrase activity – biochemical, TR-FRET, dose response (AID 1053172)
Conditions: TR-FRET integrase-LEDGF/p75 DNA integration

Row | Compound | IC50
1 | O=C(Cc1csc(N2CCOCC2)n1)N/N=C/c1ccc(O)c(O)c1O | 0.927 µM
2 | O=[N+]([O-])c1ccccc1NC(=S)N/N=C/c1ccc(O)c(O)c1 | 2.51 µM
3 | S=C(Nc1ccc(N2CCOCC2)cc1)Nc1ccc2nc(-c3ccco3)c(-c3ccco3)nc2c1 | > 36.5 µM (inactive)
4 | Cc1csc(NC(=O)CSc2sc3c(O)cc(=O)[nH]c3c2C#N)n1 | 9.73 µM
5 | O=C1CC(=O)N(Cc2ccco2)C(=O)N1 | 0.691 µM
6 | O=C(O)c1cccc(-n2cccc2/C=C/[N+](=O)[O-])c1 | 8.75 µM
7 | O=C(N/N=C/c1ccc(F)cc1)c1cc(-c2ccco2)nc2ccccc12 | 8.59 µM
8 | O=C(O)Cc1c[nH]c2cccc(O)c12 | 7.41 µM
9 | C[n+]1c2cc(N)ccc2cc2ccc(N)cc21 | 5.49 µM
10 | Cc1c(CC(=O)N2CCN(C(=O)C3COc4ccccc4O3)CC2)c(=O)oc2c(O)c(O)ccc12 (stereo unspecified) | 0.408 µM
11 | COC(=O)c1ccc(C)c(NC(=O)CSc2sc3c(O)cc(=O)[nH]c3c2C#N)c1 | inactive
12 | O=C1c2ccccc2C(=O)N1/N=C/c1ccc(O)c(O)c1 | 3 µM
13 | COc1c(O)cc2oc(-c3ccc(O)c(O)c3)cc(=O)c2c1O | 1.83 µM
14 | O=c1c(OC2OC(CO)C(O)C(O)C2OC2OC(CO)C(O)C(O)C2O)c(-c2ccc(O)cc2)oc2cc(O)cc(O)c12 (stereo unspecified) | 8.05 µM
15 | C/C(=N\NC(=O)c1cc(O)ccc1O)c1cccc(NC(=O)c2ccc(Cl)cc2)c1 | inactive
16 | CCCCCn1c(NC(=O)c2ccco2)c(S(=O)(=O)c2ccc(C)cc2)c2nc3ccccc3nc21 | inactive
17 | O=c1c2cc(O)c(O)cc2oc2cc(O)c(C3OC(CO)C(O)C(O)C3O)c(O)c12 (stereo unspecified) | 1.74 µM
18 | O=C(NCc1ccco1)c1cc2ccc(O)cc2oc1=O | inactive
19 | Oc1ccc(C=Nc2ccc(N3CCOCC3)cc2)c(O)c1 | inactive
20 | O=C(CCN1C(=O)/C(=C/c2ccco2)SC1=S)Nc1ccc(O)cc1C(=O)O | inactive
21 | CCn1c(C)nc2cc(C(=O)N/N=C/c3ccc(O)c(O)c3O)ccc21 | 0.429 µM
22 | NC(=O)CC1Nc2cccc3cccc(c23)NC1=O (stereo unspecified) | > 36.5 µM (inactive)
23 | COc1cccc(-n2c(SCc3cc(=O)oc4cc(O)c(O)cc34)nc3ccccc3c2=O)c1 | 3.81 µM
24 | O=C1C=C(Nc2ccccc2O)c2ccccc2C1=O | 7.39 µM
25 | Cc1ccc(NC2=CC(=O)C(=O)c3ccccc32)cc1 | 8.86 µM
26 | COc1ccc(NC(=S)Nc2ccc3nsnc3c2)cc1 | inactive

Row | Compound | IC50
27 | CN(C)c1ccc2cc(S(=O)(=O)O)cc(O)c2c1 | 4.49 µM
28 | O=c1cc(-c2ccc(O)c(O)c2)oc2cc(O)c(C3OC(CO)C(O)C(O)C3O)c(O)c12 (stereo unspecified) | 1.55 µM
29 | NC(=S)NN=Cc1nccc2c(N)cccc12 | > 36.5 µM (inactive)
30 | O=c1cc(-c2ccc(O)cc2)oc2c(O)c(O)c(O)c(O)c12 | 0.341 µM
31 | COc1ccc(NS(=O)(=O)c2ccc3c(c2)[C@H]2C=CC[C@H]2[C@@H](c2ccc(C(=O)O)cc2)N3)cc1 | 2.12 µM
32 | Cc1ccc(N=C2NC(=O)/C(=C/C=C/c3ccco3)S2)cc1 | 9.14 µM
33 | C=C1c2cccc(O)c2C(=O)C2C(=O)[C@]3(O)C(=O)C(C(N)=O)C(=O)[C@@H](N(C)C)[C@@H]3[C@@H](O)[C@H]12 (stereo partly specified) | 4.76 µM
34 | Oc1cccc(CN2CCOCC2)c1O | inactive
35 | O=C1C=C(O)c2[nH]c(=O)ccc2C1=O | 3.8 µM
36 | COCCCNC(=O)/C(C#N)=C/c1ccc(OCC(=O)O)c(OC)c1 | 5.28 µM
37 | C[C@@H]1O[C@@H](Oc2c(-c3cc(O)c(O)c(O)c3)oc3cc(O)cc(O)c3c2=O)[C@H](O)[C@H](O)[C@H]1O | 1.64 µM
38 | O=C(NN1C(=O)/C(=C/C=C/c2ccco2)SC1=S)c1ccncc1 | 1.2 µM
39 | COc1cc(/C=C/C=C2/CC/C(=C/C=C/c3ccc(O)c(OC)c3)C2=O)ccc1O | 4.93 µM
40 | CCN(CC)CCCNc1ccc2ncn3c4ccc(O)cc4c(=O)c1c23 | > 36.5 µM (inactive)
41 | CC(C(=O)O)N1C(=O)/C(=C/C=C/c2ccco2)SC1=S (stereo unspecified) | 0.452 µM
42 | O=C1/C(=C/C=C/c2ccco2)SC(=S)N1c1ccc(O)cc1 | 2.66 µM
43 | NC(=O)c1ccc(N=Cc2c(O)n(Cc3ccco3)c(=O)[nH]c2=O)cc1 | inactive
44 | Nc1nc(-c2ccco2)c(-c2ccco2)s1 | > 36.5 µM (inactive)
45 | O=C(CCc1ccc(S(=O)(=O)N2CCOCC2)cc1)N/N=C/c1ccc(O)c(O)c1O | inactive
46 | COc1ccc(/C=C2\C(=O)NC(=O)c3ccccc32)cc1OC | 3.94 µM
47 | COC(=O)C1CCN(C(=O)c2cc(-c3ccco3)nc3ccccc23)CC1 | 5.92 µM
48 | CC1OC(Oc2c(-c3cc(O)c(O)c(O)c3)oc3cc(O)cc(O)c3c2=O)C(O)C(O)C1O (stereo unspecified) | 3.09 µM
49 | O=C1OC(c2cccs2)=N/C1=C/c1ccc(-c2cccc(C(=O)O)c2)o1 | inactive
50 | O=C1c2c(O)cc(O)cc2O[C@@]12c1c(cc(O)c3c1O[C@H](c1ccc(O)cc1)[C@@H](O)C3)O[C@@H]2c1ccc(O)cc1 | inactive
51 | Cc1cccc(N=C2NC(=O)/C(=C/C=C/c3ccco3)S2)c1C | 2.99 µM
